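Where inhibition never reached the appropriate level, the endpoint shown equals the highest concentration tested. Otherwise, values were interpolated linearly from a five-concentration, 48-hour dose response in 96-well plates. Abbreviation: GI50, concentration required for 50% inhibition of growth. TGI: concentration producing complete growth inhibition.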
Tests used:
Assay in all cases: NCI tumour cell line growth inhibition, 48 h
[1] = tested on: IGROV1 ovarian
[2] = tested on: OVCAR-4 ovarian
[3] = tested on: M14 melanoma
[4] = tested on: SR leukemia
[5] = tested on: OVCAR-8 ovarian
[6] = tested on: SK-MEL-5 melanoma
[7] = tested on: MALME-3M melanoma
[8] = tested on: K-562 leukemia
[9] = tested on: SNB-75 CNS
[10] = tested on: HCT-116 colon

`COc1ccc(-c2cc(Nc3ccnc(N4CCOCC4)n3)on2)cc1` was tested, and the GI50 [1] was 0.245 µM, the TGI [1] was 16.9 µM and the GI50 [2] was 1.72 µM. The TGI [2] was 18.5 µM, the GI50 [3] was 0.0957 µM and the TGI [3] was 14.8 µM. The GI50 [4] was 0.0566 µM, the TGI [4] was > 100 µM and the GI50 [5] was 0.443 µM. For the same compound, the TGI [5] was 11.4 µM, the GI50 [6] was 0.189 µM and the TGI [6] was 2.07 µM. The GI50 [7] was 0.289 µM, the TGI [7] was 17.4 µM and the GI50 [8] was 0.047 µM. The TGI [8] was 20.9 µM, the GI50 [9] was 0.1 µM and the TGI [9] was 0.576 µM. The GI50 [10] was 0.081 µM and the TGI [10] was 13 µM.

In the case of `Cc1ccc(C)c(N2C(=O)C(=O)C(c3nc4ccccc4o3)/C(=N\NC(=O)c3ccccc3O)C2=O)c1` (stereo not drawn), the TGI [1] is reported as > 100 µM, the TGI [2] is reported as 69.6 µM and the TGI [3] is reported as > 100 µM. For the same compound, the TGI [4] was 76.2 µM, the TGI [5] was 76.7 µM and the TGI [6] was > 100 µM. The TGI [7] was > 100 µM, the TGI [8] was 85.6 µM and the TGI [9] was > 100 µM. It also gave a TGI [10] of 63.6 µM.

`NCCCOc1cc2ccccc2cc1C(=O)NCCCOc1cc2ccccc2cc1C(=O)Nc1ccc(Cl)cc1O` showed a GI50 [1] of 1.9 µM, a TGI [1] of 4.42 µM and a GI50 [2] of 0.247 µM. It also gave a TGI [2] of 0.737 µM, a GI50 [3] of 0.881 µM and a TGI [3] of 2.55 µM. For the same compound, the GI50 [4] was 0.194 µM, the TGI [4] was 0.871 µM and the GI50 [5] was 0.24 µM. The TGI [5] was 0.557 µM, the GI50 [6] was 1.36 µM and the TGI [6] was 2.8 µM. For the same compound, the GI50 [7] was 1.48 µM, the TGI [7] was 3.5 µM and the GI50 [8] was 0.262 µM. The TGI [8] was 1.02 µM, the GI50 [9] was 0.455 µM and the TGI [9] was 1.02 µM. For the same compound, the GI50 [10] was 0.19 µM and the TGI [10] was 0.374 µM.

With `C[P+](C)(C)c1ccccc1` the TGI [1] was > 100 µM, the TGI [2] was > 100 µM and the TGI [3] was > 100 µM. The TGI [4] was > 100 µM, the TGI [5] was > 100 µM and the TGI [6] was > 100 µM. For the same compound, the TGI [7] was > 100 µM, the TGI [8] was > 100 µM and the TGI [9] was > 100 µM. The TGI [10] was > 100 µM.

`CN1C(NNC(=O)c2cccnc2)=NS(=O)(=O)c2cc(Cl)ccc21` was tested, and the GI50 [1] was > 100 µM, the TGI [1] was > 100 µM and the GI50 [2] was > 100 µM. For the same compound, the TGI [2] was > 100 µM, the GI50 [3] was > 100 µM and the TGI [3] was > 100 µM. For the same compound, the GI50 [4] was > 100 µM, the TGI [4] was > 100 µM and the GI50 [5] was > 100 µM. For the same compound, the TGI [5] was > 100 µM, the GI50 [6] was > 100 µM and the TGI [6] was > 100 µM. For the same compound, the GI50 [7] was > 100 µM, the TGI [7] was > 100 µM and the GI50 [8] was > 100 µM. For the same compound, the TGI [8] was > 100 µM, the GI50 [9] was > 100 µM and the TGI [9] was > 100 µM. The GI50 [10] was > 100 µM and the TGI [10] was > 100 µM.

In the case of `COc1ccc(-c2nn(-c3cccc(Cl)c3)cc2-c2nc(N)[nH]c(=O)c2C#N)cc1`, the GI50 [1] is reported as 3.01 µM, the TGI [1] is reported as 18.1 µM and the GI50 [2] is reported as 7.71 µM. It also gave a TGI [2] of 61.9 µM, a GI50 [3] of 3.25 µM and a TGI [3] of 34 µM. For the same compound, the GI50 [4] was 3.73 µM, the TGI [4] was 21.2 µM and the GI50 [5] was 10.1 µM. The TGI [5] was 60.3 µM, the GI50 [6] was 4.07 µM and the TGI [6] was 15.9 µM. For the same compound, the GI50 [7] was 5.83 µM, the TGI [7] was 40.6 µM and the GI50 [8] was 3.45 µM. For the same compound, the TGI [8] was > 100 µM, the GI50 [9] was 2.88 µM and the TGI [9] was 21.1 µM. It also gave a GI50 [10] of 4.35 µM and a TGI [10] of 16.2 µM.

`O=[N+]([O-])c1ccc(Sc2c3ccccc3nc3ccccc23)cn1` was tested, and the TGI [1] was > 64.7 µM, the TGI [2] was 75.9 µM and the TGI [3] was 31.5 µM. The TGI [4] was > 100 µM, the TGI [5] was 52.5 µM and the TGI [6] was > 100 µM. The TGI [7] was 19.9 µM, the TGI [8] was 6.66 µM and the TGI [9] was > 63.4 µM. It also gave a TGI [10] of 11.9 µM.

With `Cc1ccc(N2C(=O)N(c3ccc(C)cc3)C3(SC=NN3C)C2=O)cc1` (stereo not drawn) the TGI [1] was > 100 µM, the TGI [2] was > 100 µM and the TGI [3] was > 100 µM. For the same compound, the TGI [4] was > 100 µM, the TGI [5] was > 100 µM and the TGI [6] was > 100 µM. The TGI [7] was > 100 µM, the TGI [8] was > 100 µM and the TGI [9] was > 100 µM. For the same compound, the TGI [10] was > 100 µM.

For `C1COCCSC2=C(SCCO1)SC(=C1SC3=C(SCCOCCOCCS3)S1)S2`, the TGI [1] was > 100 µM, the TGI [2] was > 100 µM and the TGI [3] was > 100 µM. For the same compound, the TGI [4] was > 100 µM, the TGI [5] was > 100 µM and the TGI [6] was > 100 µM. The TGI [7] was > 100 µM, the TGI [8] was > 100 µM and the TGI [9] was 51.4 µM. The TGI [10] was > 100 µM.

For `Oc1ccc(Oc2cnc3ccccc3n2)cc1`, the GI50 [1] was > 100 µM, the TGI [1] was > 100 µM and the GI50 [2] was 60.3 µM. For the same compound, the TGI [2] was > 100 µM, the GI50 [3] was > 100 µM and the TGI [3] was > 100 µM. For the same compound, the GI50 [4] was 78.5 µM, the TGI [4] was > 100 µM and the GI50 [5] was > 100 µM. For the same compound, the TGI [5] was > 100 µM, the GI50 [6] was 55.7 µM and the TGI [6] was > 100 µM. For the same compound, the GI50 [7] was > 100 µM, the TGI [7] was > 100 µM and the GI50 [8] was > 100 µM. The TGI [8] was > 100 µM, the GI50 [9] was 60 µM and the TGI [9] was > 100 µM. For the same compound, the GI50 [10] was > 100 µM and the TGI [10] was > 100 µM.

Compound `NC(=O)CNc1ccc([As]=[As]c2ccc(NCC(N)=O)cc2)cc1` (stereo not drawn) has a GI50 [1] of 3.37 µM, a TGI [1] of 23.8 µM and a GI50 [2] of 2.61 µM. The TGI [2] was 49.7 µM, the GI50 [3] was 5.02 µM and the TGI [3] was 20.6 µM. The GI50 [4] was 2.25 µM, the TGI [4] was > 100 µM and the GI50 [5] was 4.65 µM. The TGI [5] was > 100 µM, the GI50 [6] was 1.95 µM and the TGI [6] was 5.17 µM. For the same compound, the GI50 [7] was 2.62 µM, the TGI [7] was 9.71 µM and the GI50 [8] was 3.47 µM. The TGI [8] was > 100 µM, the GI50 [9] was 1.73 µM and the TGI [9] was 9.13 µM. For the same compound, the GI50 [10] was 3.64 µM and the TGI [10] was 16.3 µM.

With `NCCCn1c2c(c3ccccc3c1=O)C(=O)c1ccccc1-2` the GI50 [1] was 0.34 µM, the TGI [1] was > 64.4 µM and the GI50 [2] was 0.785 µM. The TGI [2] was 9.82 µM, the GI50 [3] was 0.628 µM and the TGI [3] was 3.47 µM. It also gave a GI50 [4] of 0.0743 µM, a GI50 [5] of 0.0658 µM and a TGI [5] of 1.32 µM. The GI50 [6] was 0.105 µM, the TGI [6] was 0.948 µM and the GI50 [7] was 0.156 µM. It also gave a TGI [7] of 1.46 µM, a GI50 [8] of 0.0857 µM and a TGI [8] of 10.4 µM. The GI50 [9] was 0.539 µM, the TGI [9] was 3.71 µM and the GI50 [10] was 0.259 µM.

From PubChem BioAssay (NCI)
